Experiments:
Assay in all cases: KINOMEscan assay (Eurofins DiscoverX)
Type in all cases: binding
kinome (kinase panel) [1] = molecular target: T1, kinome (kinase panel) (Homo sapiens, UniProt Q9Y2H1); details: NDR2 (Entrez STK38L); 1000 nM; read-out: Percent Control
T1 construct: purchased Eurofins DiscoverX

kinome (kinase panel) [2] = molecular target: T2, kinome (kinase panel) (Homo sapiens, UniProt O94804); details: LOK (Entrez STK10); 1000 nM; read-out: Percent Control
T2 construct: purchased Eurofins DiscoverX

kinome (kinase panel) [3] = molecular target: T3, kinome (kinase panel) (Homo sapiens, UniProt P52333); details: JAK3(JH1domain-catalytic); 1000 nM; read-out: Percent Control
T3 construct: purchased Eurofins DiscoverX

kinome (kinase panel) [4] = molecular target: T4, kinome (kinase panel) (Homo sapiens, UniProt Q8NEB9); details: VPS34 (PIK3C3); 1000 nM; read-out: Percent Control
T4 construct: purchased Eurofins DiscoverX

kinome (kinase panel) [5] = molecular target: T5, kinome (kinase panel) (Homo sapiens, UniProt Q8TF76); details: HASPIN (Entrez GSG2); 1000 nM; read-out: Percent Control
T5 construct: purchased Eurofins DiscoverX

kinome (kinase panel) [6] = molecular target: T6, kinome (kinase panel) (Homo sapiens, UniProt Q9Y2K2); details: QSK (Entrez KIAA0999); 1000 nM; read-out: Percent Control
T6 construct: purchased Eurofins DiscoverX

kinome (kinase panel) [7] = molecular target: T7, kinome (kinase panel) (Homo sapiens, UniProt Q9Y6E0); details: MST3 (Entrez STK24); 1000 nM; read-out: Percent Control
T7 construct: purchased Eurofins DiscoverX

kinome (kinase panel) [8] = molecular target: T8, kinome (kinase panel) (Homo sapiens, UniProt Q9UEW8); details: STK39; 1000 nM; read-out: Percent Control
T8 construct: purchased Eurofins DiscoverX

kinome (kinase panel) [9] = molecular target: T9, kinome (kinase panel) (Homo sapiens, UniProt Q52WX2); details: SBK1; 1000 nM; read-out: Percent Control
T9 construct: purchased Eurofins DiscoverX

kinome (kinase panel) [10] = molecular target: T10, kinome (kinase panel) (Homo sapiens, UniProt Q9BYT3); details: STK33; 1000 nM; read-out: Percent Control
T10 construct: purchased Eurofins DiscoverX

kinome (kinase panel) [11] = molecular target: T11, kinome (kinase panel) (Homo sapiens, UniProt Q5S007); details: LRRK2; 1000 nM; read-out: Percent Control
T11 construct: purchased Eurofins DiscoverX

kinome (kinase panel) [12] = molecular target: T12, kinome (kinase panel) (Homo sapiens, UniProt P36888, D835Y); details: […]; 1000 nM; read-out: Percent Control
T12 construct: purchased Eurofins DiscoverX

kinome (kinase panel) [13] = molecular target: T13, kinome (kinase panel) (Homo sapiens, UniProt P42336, E545K); details: read-out: Percent Control
T13 construct: purchased Eurofins DiscoverX

kinome (kinase panel) [14] = molecular target: T14, kinome (kinase panel) (Homo sapiens, UniProt Q09013); details: DMPK; 1000 nM; read-out: Percent Control
T14 construct: purchased Eurofins DiscoverX

kinome (kinase panel) [15] = molecular target: T15, kinome (kinase panel) (Homo sapiens, UniProt Q16816); details: PHKG1; 1000 nM; read-out: Percent Control
T15 construct: purchased Eurofins DiscoverX

kinome (kinase panel) [16] = molecular target: T16, kinome (kinase panel) (Homo sapiens, UniProt P00533, T790M); details: […]; 1000 nM; read-out: Percent Control
T16 construct: purchased Eurofins DiscoverX

kinome (kinase panel) [17] = molecular target: T17, kinome (kinase panel) (Homo sapiens, UniProt P04049); details: RAF1; 1000 nM; read-out: Percent Control
T17 construct: purchased Eurofins DiscoverX

kinome (kinase panel) [18] = molecular target: T18, kinome (kinase panel) (Homo sapiens, UniProt O00506); details: YSK1 (STK25); 1000 nM; read-out: Percent Control
T18 construct: purchased Eurofins DiscoverX

kinome (kinase panel) [19] = molecular target: T19, kinome (kinase panel) (Homo sapiens, UniProt Q13882); details: BRK (Entrez PTK6); 1000 nM; read-out: Percent Control
T19 construct: purchased Eurofins DiscoverX

kinome (kinase panel) [20] = molecular target: T20, kinome (kinase panel) (Homo sapiens, UniProt P42336, H1047L); details: read-out: Percent Control
T20 construct: purchased Eurofins DiscoverX

kinome (kinase panel) [21] = molecular target: T21, kinome (kinase panel) (Homo sapiens, UniProt Q13976); details: PRKG1; 1000 nM; read-out: Percent Control
T21 construct: purchased Eurofins DiscoverX

kinome (kinase panel) [22] = molecular target: T22, kinome (kinase panel) (Homo sapiens, UniProt Q15208); details: NDR1 (Entrez STK38); 1000 nM; read-out: Percent Control
T22 construct: purchased Eurofins DiscoverX

kinome (kinase panel) [23] = molecular target: T23, kinome (kinase panel) (Homo sapiens, UniProt Q9H0K1); details: SIK2; 1000 nM; read-out: Percent Control
T23 construct: purchased Eurofins DiscoverX

kinome (kinase panel) [24] = molecular target: T24, kinome (kinase panel) (Homo sapiens, UniProt Q8NFD2); details: ANKK1; 1000 nM; read-out: Percent Control
T24 construct: purchased Eurofins DiscoverX

kinome (kinase panel) [25] = molecular target: T25, kinome (kinase panel) (Homo sapiens, UniProt P42336, M1043I); details: read-out: Percent Control
T25 construct: purchased Eurofins DiscoverX

kinome (kinase panel) [26] = molecular target: T26, kinome (kinase panel) (Homo sapiens, UniProt Q9Y2I7); details: PIKFYVE; 1000 nM; read-out: Percent Control
T26 construct: purchased Eurofins DiscoverX

kinome (kinase panel) [27] = molecular target: T27, kinome (kinase panel) (Homo sapiens, UniProt Q13627); details: DYRK1A; 1000 nM; read-out: Percent Control
T27 construct: purchased Eurofins DiscoverX

kinome (kinase panel) [28] = molecular target: T28, kinome (kinase panel) (Homo sapiens, UniProt Q9H4B4); details: PLK3; 1000 nM; read-out: Percent Control
T28 construct: purchased Eurofins DiscoverX

kinome (kinase panel) [29] = molecular target: T29, kinome (kinase panel) (Homo sapiens, UniProt P36897); details: TGFBR1; 1000 nM; read-out: Percent Control
T29 construct: purchased Eurofins DiscoverX

kinome (kinase panel) [30] = molecular target: T30, kinome (kinase panel) (Homo sapiens, UniProt Q15746); details: MYLK; 1000 nM; read-out: Percent Control
T30 construct: purchased Eurofins DiscoverX

kinome (kinase panel) [31] = molecular target: T31, kinome (kinase panel) (Homo sapiens, UniProt Q00537); details: PCTK2 (Entrez CDK17); 1000 nM; read-out: Percent Control
T31 construct: purchased Eurofins DiscoverX

kinome (kinase panel) [32] = molecular target: T32, kinome (kinase panel) (Homo sapiens, UniProt Q99759); details: MAP3K3; 1000 nM; read-out: Percent Control
T32 construct: purchased Eurofins DiscoverX

kinome (kinase panel) [33] = molecular target: T33, kinome (kinase panel) (Homo sapiens, UniProt P00519, Y253F); details: read-out: Percent Control
T33 construct: purchased Eurofins DiscoverX

T7 sequence (Q9Y6E0 whole entry): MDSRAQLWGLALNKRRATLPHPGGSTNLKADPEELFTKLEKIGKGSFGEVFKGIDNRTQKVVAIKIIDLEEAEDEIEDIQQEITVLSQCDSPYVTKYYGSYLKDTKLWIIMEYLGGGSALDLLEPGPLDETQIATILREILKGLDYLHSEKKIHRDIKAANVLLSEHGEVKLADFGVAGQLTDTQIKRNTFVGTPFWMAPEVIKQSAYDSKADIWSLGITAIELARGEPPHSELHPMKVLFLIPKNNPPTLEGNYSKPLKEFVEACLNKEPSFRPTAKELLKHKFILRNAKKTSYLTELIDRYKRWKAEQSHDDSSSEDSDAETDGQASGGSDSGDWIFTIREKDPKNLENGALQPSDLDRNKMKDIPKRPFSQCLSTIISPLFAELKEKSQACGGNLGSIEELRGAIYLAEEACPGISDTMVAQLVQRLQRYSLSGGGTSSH
T20 sequence (P42336 whole entry H1047L): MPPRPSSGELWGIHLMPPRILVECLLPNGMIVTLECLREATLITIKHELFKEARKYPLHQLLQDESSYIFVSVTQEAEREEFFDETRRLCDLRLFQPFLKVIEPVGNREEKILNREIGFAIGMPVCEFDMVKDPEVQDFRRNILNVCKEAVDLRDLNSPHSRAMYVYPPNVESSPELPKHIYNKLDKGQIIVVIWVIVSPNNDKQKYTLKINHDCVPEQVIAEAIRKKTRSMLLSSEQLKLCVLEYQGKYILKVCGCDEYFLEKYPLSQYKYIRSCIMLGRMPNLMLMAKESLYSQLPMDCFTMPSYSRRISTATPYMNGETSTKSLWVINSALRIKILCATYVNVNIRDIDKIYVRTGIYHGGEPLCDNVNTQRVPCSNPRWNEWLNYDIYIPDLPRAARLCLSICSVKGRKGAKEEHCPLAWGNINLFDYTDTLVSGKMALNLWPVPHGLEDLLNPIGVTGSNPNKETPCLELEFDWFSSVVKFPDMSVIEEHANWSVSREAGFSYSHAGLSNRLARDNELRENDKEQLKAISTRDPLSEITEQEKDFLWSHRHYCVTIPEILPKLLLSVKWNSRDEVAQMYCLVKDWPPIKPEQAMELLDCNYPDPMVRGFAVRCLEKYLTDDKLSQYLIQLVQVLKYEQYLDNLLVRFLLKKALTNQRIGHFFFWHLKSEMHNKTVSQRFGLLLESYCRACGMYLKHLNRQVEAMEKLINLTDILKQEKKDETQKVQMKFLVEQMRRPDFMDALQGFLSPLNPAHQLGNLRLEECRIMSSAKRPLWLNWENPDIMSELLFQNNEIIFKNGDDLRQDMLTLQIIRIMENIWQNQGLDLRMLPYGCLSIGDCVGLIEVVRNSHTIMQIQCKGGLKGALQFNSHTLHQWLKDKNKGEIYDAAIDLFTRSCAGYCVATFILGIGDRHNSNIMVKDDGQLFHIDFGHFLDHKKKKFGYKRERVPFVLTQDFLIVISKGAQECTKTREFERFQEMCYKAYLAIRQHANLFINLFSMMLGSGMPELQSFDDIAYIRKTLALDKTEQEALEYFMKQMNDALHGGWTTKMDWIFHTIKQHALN
T15 sequence (Q16816 whole entry): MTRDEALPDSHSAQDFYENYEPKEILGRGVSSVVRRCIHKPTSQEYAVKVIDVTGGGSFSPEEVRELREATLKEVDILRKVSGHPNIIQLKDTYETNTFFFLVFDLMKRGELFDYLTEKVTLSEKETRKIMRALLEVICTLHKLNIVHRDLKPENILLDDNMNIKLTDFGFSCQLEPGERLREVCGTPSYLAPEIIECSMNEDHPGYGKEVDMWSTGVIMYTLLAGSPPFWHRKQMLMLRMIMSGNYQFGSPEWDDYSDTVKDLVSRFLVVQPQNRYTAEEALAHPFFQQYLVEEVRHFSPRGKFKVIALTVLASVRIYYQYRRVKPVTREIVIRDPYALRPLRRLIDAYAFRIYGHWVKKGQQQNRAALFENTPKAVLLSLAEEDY
T18 sequence (O00506 whole entry): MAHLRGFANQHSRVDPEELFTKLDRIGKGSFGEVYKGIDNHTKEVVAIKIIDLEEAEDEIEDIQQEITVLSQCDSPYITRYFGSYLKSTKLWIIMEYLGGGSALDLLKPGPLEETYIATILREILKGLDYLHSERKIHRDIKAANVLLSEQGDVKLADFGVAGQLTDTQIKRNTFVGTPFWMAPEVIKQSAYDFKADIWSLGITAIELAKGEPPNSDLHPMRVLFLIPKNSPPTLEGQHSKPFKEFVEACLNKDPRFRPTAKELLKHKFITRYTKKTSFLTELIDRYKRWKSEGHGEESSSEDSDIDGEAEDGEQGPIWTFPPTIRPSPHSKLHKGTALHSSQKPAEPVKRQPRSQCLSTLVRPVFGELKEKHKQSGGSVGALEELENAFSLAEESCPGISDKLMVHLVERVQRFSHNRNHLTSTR
T4 sequence (Q8NEB9 whole entry): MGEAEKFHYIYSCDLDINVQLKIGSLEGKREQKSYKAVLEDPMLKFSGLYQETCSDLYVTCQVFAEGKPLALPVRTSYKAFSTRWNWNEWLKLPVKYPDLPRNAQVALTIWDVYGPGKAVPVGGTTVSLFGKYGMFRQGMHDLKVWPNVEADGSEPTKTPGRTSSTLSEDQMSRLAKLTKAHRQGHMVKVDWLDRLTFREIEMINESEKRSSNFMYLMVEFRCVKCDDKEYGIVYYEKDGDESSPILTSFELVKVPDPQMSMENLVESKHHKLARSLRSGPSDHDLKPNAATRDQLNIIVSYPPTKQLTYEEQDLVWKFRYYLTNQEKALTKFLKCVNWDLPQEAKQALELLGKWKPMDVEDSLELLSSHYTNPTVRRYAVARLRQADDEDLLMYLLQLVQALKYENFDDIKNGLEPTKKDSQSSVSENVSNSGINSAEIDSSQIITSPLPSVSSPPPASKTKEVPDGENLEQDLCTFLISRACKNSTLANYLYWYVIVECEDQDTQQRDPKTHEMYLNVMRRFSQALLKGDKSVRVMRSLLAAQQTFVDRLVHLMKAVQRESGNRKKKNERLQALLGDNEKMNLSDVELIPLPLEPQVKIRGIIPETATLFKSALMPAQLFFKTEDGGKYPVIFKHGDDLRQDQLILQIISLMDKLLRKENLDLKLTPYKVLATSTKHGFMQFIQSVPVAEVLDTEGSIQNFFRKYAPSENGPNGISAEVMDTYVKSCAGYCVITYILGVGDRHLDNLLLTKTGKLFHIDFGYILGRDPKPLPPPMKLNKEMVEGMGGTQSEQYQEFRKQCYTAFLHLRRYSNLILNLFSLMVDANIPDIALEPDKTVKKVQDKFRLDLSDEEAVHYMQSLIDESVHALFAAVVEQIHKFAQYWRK
T13 sequence (P42336 whole entry E545K): as the sequence (P42336 whole entry H1047L) above, with E545K, L1047H counted along it
T22 sequence (Q15208 whole entry): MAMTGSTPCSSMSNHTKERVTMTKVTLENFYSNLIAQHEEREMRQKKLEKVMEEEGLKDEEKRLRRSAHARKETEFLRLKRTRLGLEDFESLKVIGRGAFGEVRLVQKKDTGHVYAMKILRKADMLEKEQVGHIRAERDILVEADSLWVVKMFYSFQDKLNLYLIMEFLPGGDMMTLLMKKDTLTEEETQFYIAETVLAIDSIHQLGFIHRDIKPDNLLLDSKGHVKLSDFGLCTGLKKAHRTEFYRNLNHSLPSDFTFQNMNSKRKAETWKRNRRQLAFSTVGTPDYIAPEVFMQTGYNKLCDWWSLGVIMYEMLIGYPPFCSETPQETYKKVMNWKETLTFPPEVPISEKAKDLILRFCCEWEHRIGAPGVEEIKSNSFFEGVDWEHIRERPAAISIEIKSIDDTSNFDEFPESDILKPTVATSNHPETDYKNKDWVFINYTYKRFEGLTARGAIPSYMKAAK
T23 sequence (Q9H0K1 whole entry): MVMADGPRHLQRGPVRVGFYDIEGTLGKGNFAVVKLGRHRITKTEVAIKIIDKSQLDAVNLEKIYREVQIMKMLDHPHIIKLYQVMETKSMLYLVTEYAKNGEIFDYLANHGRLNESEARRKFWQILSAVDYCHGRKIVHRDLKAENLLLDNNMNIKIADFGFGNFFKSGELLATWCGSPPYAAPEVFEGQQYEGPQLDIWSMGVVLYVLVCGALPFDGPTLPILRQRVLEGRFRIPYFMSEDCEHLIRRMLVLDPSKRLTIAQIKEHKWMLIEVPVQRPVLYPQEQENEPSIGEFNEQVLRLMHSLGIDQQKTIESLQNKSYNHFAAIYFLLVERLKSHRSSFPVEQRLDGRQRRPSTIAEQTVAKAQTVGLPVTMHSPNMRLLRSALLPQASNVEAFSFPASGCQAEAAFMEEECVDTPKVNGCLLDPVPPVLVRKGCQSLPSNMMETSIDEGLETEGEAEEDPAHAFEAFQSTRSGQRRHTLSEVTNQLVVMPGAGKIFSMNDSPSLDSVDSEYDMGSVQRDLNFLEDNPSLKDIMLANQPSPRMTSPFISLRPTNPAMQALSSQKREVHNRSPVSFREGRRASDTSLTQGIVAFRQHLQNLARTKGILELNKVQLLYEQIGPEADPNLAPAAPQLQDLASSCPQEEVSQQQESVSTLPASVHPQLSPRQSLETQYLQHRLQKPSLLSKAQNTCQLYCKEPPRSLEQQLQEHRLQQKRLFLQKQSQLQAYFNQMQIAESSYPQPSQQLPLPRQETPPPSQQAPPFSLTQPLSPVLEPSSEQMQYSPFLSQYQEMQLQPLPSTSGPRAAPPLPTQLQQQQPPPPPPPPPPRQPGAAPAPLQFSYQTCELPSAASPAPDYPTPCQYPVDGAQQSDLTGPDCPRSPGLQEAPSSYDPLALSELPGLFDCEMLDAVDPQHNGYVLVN
T25 sequence (P42336 whole entry M1043I): as the sequence (P42336 whole entry H1047L) above, with M1043I, L1047H counted along it

SMILES: CN(C)C(=O)c1cc2cnc(Nc3ccc(-c4csc5c(=O)cc(N6CCOCC6)oc45)cc3)nc2n1C1CCCC1 [SRX3177]
- remaining binding at 1 µM (kinome (kinase panel) [1]): 90%
- remaining binding at 1 µM (kinome (kinase panel) [2]): 100%
- remaining binding at 1 µM (kinome (kinase panel) [3]): 13%
- remaining binding at 1 µM (kinome (kinase panel) [4]): 46%
- remaining binding at 1 µM (kinome (kinase panel) [5]): 67%
- remaining binding at 1 µM (kinome (kinase panel) [6]): 59%
- remaining binding at 1 µM (kinome (kinase panel) [7]): 93%
- remaining binding at 1 µM (kinome (kinase panel) [8]): 71%
- remaining binding at 1 µM (kinome (kinase panel) [9]): 67%
- remaining binding at 1 µM (kinome (kinase panel) [10]): 98%
- remaining binding at 1 µM (kinome (kinase panel) [11]): 34%
- remaining binding at 1 µM (kinome (kinase panel) [12]): 83%
- remaining binding at 1 µM (kinome (kinase panel) [13]): 45%
- remaining binding at 1 µM (kinome (kinase panel) [14]): 100%
- remaining binding at 1 µM (kinome (kinase panel) [15]): 88%
- remaining binding at 1 µM (kinome (kinase panel) [16]): 46%
- remaining binding at 1 µM (kinome (kinase panel) [17]): 100%
- remaining binding at 1 µM (kinome (kinase panel) [18]): 100%
- remaining binding at 1 µM (kinome (kinase panel) [19]): 100%
- remaining binding at 1 µM (kinome (kinase panel) [20]): 41%
- remaining binding at 1 µM (kinome (kinase panel) [21]): 100%
- remaining binding at 1 µM (kinome (kinase panel) [22]): 99%
- remaining binding at 1 µM (kinome (kinase panel) [23]): 58%
- remaining binding at 1 µM (kinome (kinase panel) [24]): 50%
- remaining binding at 1 µM (kinome (kinase panel) [25]): 70%
- remaining binding at 1 µM (kinome (kinase panel) [26]): 2.4%
- remaining binding at 1 µM (kinome (kinase panel) [27]): 60%
- remaining binding at 1 µM (kinome (kinase panel) [28]): 79%
- remaining binding at 1 µM (kinome (kinase panel) [29]): 100%
- remaining binding at 1 µM (kinome (kinase panel) [30]): 5.4%
- remaining binding at 1 µM (kinome (kinase panel) [31]): 55%
- remaining binding at 1 µM (kinome (kinase panel) [32]): 58%
- remaining binding at 1 µM (kinome (kinase panel) [33]): 72%

Source: PMC7385619, “A triple action CDK4/6-PI3K-BET inhibitor with augmented cancer cell cytotoxicity” (Cell Discovery, 2020)
